Experimental data as given in EP2431387A1, “A raft deficient yeast expression system for the production of recombinant membrane proteins” (Centre National de la Recherche Scientifique (C.N.R.S), priority 2010, dated 2012).
Like-named read-outs stand apart in the source and are kept apart here.

Key:
ADRA1A [1] = target: T1, ADRA1A (Homo sapiens, UniProt P35348); conditions: ADRA1A solubilized (CHAPS/CHS) from membranes of erg6 cells
Procedure: (§1) For saturation binding assays, increasing concentrations of radioactive ligands ranging from 1 to 30 nM were added to 10 µg of proteins diluted in binding buffer (30 mM HEPES, pH 7.7, 0.15 M NaCl and 0.1% BSA). […] Non-specific binding was determined by the addition of 10 µM « cold » ligands using spiperone, prazozine, yohimbine and melatonin for DRD2, ADRA1, ADR2B and MTR1A, respectively. After 1-h incubation at RT, the reaction was terminated by rapid filtration of the samples through GF/B filters presoaked in 1 % polyethylenimine. The filters were washed 3 times with ice-cold buffer (Tris-HCI 50 mM, pH 7.4), and the radioactivity was measured by liquid-scintillation counting. The equilibrium dissociation constant, KD and the maximal number of binding sites, Bmax for radioligands were determined. The data were expressed as the mean ± standard error (SE) for at least three independant experiments performed in triplicate. Data were fitted through non-linear regression analysis with the one-site saturation binding model using the Prism 4 program of GraphPad.
(§2) Saturation binding experiments were performed on CHAPS/CHS solubilized receptors the same way than described in Example 4 in order to test receptor activity and stability (FIG.5).

ADRA1A [2] = target: T1, ADRA1A
Procedure: as §1

MTR1A [3] = target: T2, MTR1A (Homo sapiens, UniProt P48039)
T2 sequence (P48039 whole entry): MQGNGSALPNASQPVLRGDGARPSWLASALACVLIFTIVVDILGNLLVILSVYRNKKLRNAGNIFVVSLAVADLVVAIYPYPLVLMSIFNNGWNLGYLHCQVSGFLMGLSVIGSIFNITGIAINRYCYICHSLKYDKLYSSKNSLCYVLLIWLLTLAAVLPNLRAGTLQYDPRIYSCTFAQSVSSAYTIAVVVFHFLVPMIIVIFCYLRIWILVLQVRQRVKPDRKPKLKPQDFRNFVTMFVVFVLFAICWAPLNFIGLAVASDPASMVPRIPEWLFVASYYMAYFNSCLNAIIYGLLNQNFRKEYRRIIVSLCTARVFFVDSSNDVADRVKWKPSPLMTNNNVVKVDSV
Procedure: as §1, §2

MTR1A [4] = target: T2, MTR1A; remark: listed apart in the source
Procedure: as §1

DRD2 [5] = target: T3, DRD2 (Homo sapiens, UniProt P14416); test: Saturation radioligand binding assay on CHAPS/CHS solubilized receptors; conditions: DRD2 solubilized (CHAPS/CHS) from membranes of erg6 cells
T3 sequence (P14416 whole entry): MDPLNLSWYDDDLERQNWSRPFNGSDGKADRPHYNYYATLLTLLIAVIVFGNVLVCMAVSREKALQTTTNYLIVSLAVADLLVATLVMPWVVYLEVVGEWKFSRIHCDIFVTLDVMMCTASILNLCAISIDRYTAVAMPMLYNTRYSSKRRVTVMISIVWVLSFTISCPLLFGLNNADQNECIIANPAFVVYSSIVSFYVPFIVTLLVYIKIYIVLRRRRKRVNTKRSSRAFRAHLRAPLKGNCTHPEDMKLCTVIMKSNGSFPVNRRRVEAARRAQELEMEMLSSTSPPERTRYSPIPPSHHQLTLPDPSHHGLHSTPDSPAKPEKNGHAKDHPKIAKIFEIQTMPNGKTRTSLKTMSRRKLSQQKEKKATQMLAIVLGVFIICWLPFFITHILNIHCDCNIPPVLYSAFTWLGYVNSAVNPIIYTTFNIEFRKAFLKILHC
Procedure: as §1, §2

DRD2 [6] = target: T3, DRD2; test: Saturation radioligand binding assay on crude membranes of P. pastoris cells; conditions: DRD2 expressed in membranes of erg6 cells
Procedure: as §1

T1 sequence (P35348 whole entry): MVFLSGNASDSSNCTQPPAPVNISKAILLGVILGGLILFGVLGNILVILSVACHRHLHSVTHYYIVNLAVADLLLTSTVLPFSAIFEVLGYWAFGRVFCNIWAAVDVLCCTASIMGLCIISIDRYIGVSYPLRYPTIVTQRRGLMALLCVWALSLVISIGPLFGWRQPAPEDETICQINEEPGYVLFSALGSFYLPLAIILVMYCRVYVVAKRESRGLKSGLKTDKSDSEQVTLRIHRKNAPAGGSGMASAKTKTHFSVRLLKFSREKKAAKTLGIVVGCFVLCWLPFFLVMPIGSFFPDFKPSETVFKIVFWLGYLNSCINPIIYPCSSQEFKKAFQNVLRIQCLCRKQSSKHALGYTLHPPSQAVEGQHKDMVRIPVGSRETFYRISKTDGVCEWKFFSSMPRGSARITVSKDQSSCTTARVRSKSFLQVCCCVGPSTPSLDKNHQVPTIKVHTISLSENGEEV

Molecule `COc1cc2nc(N3CCN(C(=O)c4ccco4)CC3)nc(N)c2cc1OC` [[3H]-Prazozine] has a Bmax (ADRA1A [1]) of 11.34 ± 0.71 pmol/mg, a Bmax (ADRA1A [2]; ADRA1A expressed in membranes of WT cells) of 15.72 ± 2.09 pmol/mg and a Bmax (ADRA1A [2]; ADRA1A expressed in membranes of erg6 cells) of 35.74 ± 1.11 pmol/mg.
In the case of `COc1ccc2[nH]cc(CCNC(C)=O)c2c1` [[3H]-Melatonin], the Bmax (MTR1A [3]; MTR1A solubilized (CHAPS/CHS) from membranes of WT cells) is reported as 2.91 ± 0.29 pmol/mg, the Bmax (MTR1A [3]; MTR1A solubilized (CHAPS/CHS) from membranes of erg6 cells) is reported as 5.13 ± 0.32 pmol/mg and the Bmax (MTR1A [4]; MTR1A expressed in membranes of WT cells) is reported as 4.86 ± 0.38 pmol/mg. For the same molecule, the Bmax (MTR1A [4]; MTR1A expressed in membranes of erg6 cells) was 1.35 ± 0.30 pmol/mg.
With `O=C(CCCN1CCC2(CC1)C(=O)NCN2c1ccccc1)c1ccc(F)cc1` [[3H]-Spiperone] the Bmax (DRD2 [5]) was 42.79 ± 4.71 pmol/mg and the Bmax (DRD2 [6]) was 62.20 ± 16.42 pmol/mg.
